In US20160250303A1, “PERFORIN-2 ACTIVATORS AND INHIBITORS AS DRUG TARGETS FOR INFECTIOUS DISEASE AND GUT INFLAMMATION” (UNIVERSITY OF MIAMI, priority 2013, published 2016):

Tested on: P-2 mediated bacterial killing
Experiment: Perforin-2 mediated killing of MRSA by BV2 phagocytic cells in vitro (FIG. 14c)
Conditions: phagocytic cell BV2, in vitro, listed as MLN4294

Structure (SMILES): NS(=O)(=O)OC[C@@H]1CC(n2ccc3c(N[C@H]4CCc5ccccc54)ncnc32)C[C@@H]1O (stereo partly shown) [MLN 4924]
- P-2 mediated bacterial killing: blocked
